# In patent EP0953345A1, “Use of at least a hydroxystilbene as an agent for decreasing micro-organism adhesion” (priority 1998, dated 1999):
# Tested on: Staphylococcus epidermis
# Assay: ex vivo bacteria/skin adhesion model on intact human skin explants (3H-thymidine-labelled bacteria, liquid scintillation counting)
# Type: cell-based
# From the text: L'activité du resvératrol sur l'adhésion de micro-organismes sur la peau ou sur les muqueuses humaines est testée sur un modèle d'adhésion bactéries/peau, tel que décrit ci-après.
# Ce modèle d'adhésion bactéries/peau ex vivo est basé sur l'utilisation d'explants de peau humaine intacte montée en sandwich entre une plaque 96 puits sans fond et un support en Plexiglas. Les puits individualisés étanches permettent de tester dans un format standard l'effet du resvératrol sur l'adhésion de Staphylococcus epidermis (bactéries résidentes) à la surface de la peau. Les bactéries sont radio marquées en phase de croissance par incorporation de 3H-thymidine. Cette flore bactérienne est ensuite déposée dans chaque puits. Après une heure d'incubation à 20°C, les puits sont lavés trois fois avec du tampon phosphate salin (PBS) ce qui permet d'éliminer les bactéries libres. Le resvératrol est ensuite ajouté à 0,1 µM et 10 µM et incubé 1 heure à 20°C. A l'issue de cette incubation le contenu de chaque puits est récupéré et compté en scintillation liquide (bactéries désorbées). Les puits sont ensuite lavés avec une solution chaotropique qui permet d'éluer les bactéries adhérentes. Les solutions de lavages sont également compté en scintillation liquide (bactéries adhérentes). Un témoin positif (Fucogel® Acide (poly-[(α-1,3)-Fuc-(α-1,3)-Gal-(α-1,3)-galacturonique]) est inclus à l'étude comme référence.
# [1] = Staphylococcus, 1 h, read-out: Bactéries adhérentes
# [2] = Staphylococcus, read-out: inhibition de l'adhésion des bactéries
compound,measurement,setting,value
"Oc1ccc(C=Cc2cc(O)cc(O)c2)cc1 [resvératrol, 3,4',5-trihydroxystilbène]",dose dependence of the activity on adhesion of bacteria to human skin (in words),"0,1 µM and 10 µM",dose dépendante
same,activity at 0.1 µM,[1],71%
same,activity at 10 µM,[1],64%
same,inhibition at 1 µM,[2],29%
same,inhibition at 10 µM,[2],36%
